Source: BindingDB's records for doi:10.1021/jm030871u (2003)
Residues, ends and D or L forms follow the SMILES beside them. *: point of attachment. X1 = CC(C)CCC[C@@H](C)[C@H]1CCC2C3CC=C4C[C@H](SC[C@@H]5CCN6CC[C@@H](CSCC(=O)*)NC6=N5)CC[C@]4(C)C3CC[C@@]21C; X2 = CC(C)(C)[Si](OCC1CCN2CCC(CSCC(=O)*)NC2=N1)(c1ccccc1)c1ccccc1; OBn = c1ccc(CO*)cc1; Bn = c1ccc(C*)cc1

Target: Human immunodeficiency virus type 1 protease (Human immunodeficiency virus 1, UniProt Q72874)
Assay: Competitive inhibition against HIV-1 Protease

Row | SMILES | Ki
1 | CC[C@H](C)[C@H](NC(=O)CNC(=O)CSCC1CCN2CCC(CO[Si](c3ccccc3)(c3ccccc3)C(C)(C)C)N=C2N1)C(=O)N[C@@H](CO)C(=O)N[C@@H](Cc1ccc(O)cc1)C(=O)N[C@@H](CC(N)=O)C(=O)N[C@@H](CC(C)C)C(=O)OC (some centres not stated) [Bicyclic Guanidinium Subunit] (X2-GISYNL-OMe) | 6 µM
2 | CC(C)CCC[C@@H](C)[C@H]1CCC2C3CC=C4C[C@H](SC[C@@H]5CCN6CC[C@@H](CSCC(=O)NCC(=O)N[C@@H](C)C(=O)N[C@H](C(=O)N[C@@H](CC(C)C)C(=O)N[C@@H](CC(N)=O)C(=O)N[C@@H](Cc7ccccc7)C(=O)OCc7ccccc7)[C@@H](C)OCc7ccccc7)NC6=N5)CC[C@]4(C)C3CC[C@@]21C (some centres not stated) (X1-GAT(Bn)LNF-OBn) | 0.4 µM
